# Measurements from US20210329894A1, “METHOD FOR PREPARING ALZHEIMER'S DISEASE (AD) ANIMAL MODEL” (Shanxi Medical University, priority 2020, published 2021).
# Assays:
# Format in all cases: in vivo
# [1] = test system: ApoE4 transgenic mice (KI); assay: Morris water maze (place navigation test and space exploration experiment); conditions: 4 mmol/L Al(mal)3 i.p. 10 ml/kg
# Description: (§1) Example 1 Establishment of aluminum-exposed ApoE4 transgenic mouse model 16 healthy male ApoE4 transgenic mice (KI), 16 ApoE knockout mice (KO) and 16 wild-type mice (C57BL/6J, WT) aged 4 to 5 weeks were selected, with similar activities and weights of 18 g to 20 g. They were randomly divided into control group (NS) and aluminum-exposed group (Al), with 8 animals in each group.
# (§2) An 8 mmol/L aluminum chloride solution and a 24 mmol/L maltol solution were prepared with sterilized triple distilled water, then the two solutions were mixed in a volume ratio of 1:1 to obtain a Al(mal)3 solution with a final concentration of 4 mmol/L, and pH was adjusted to 7.4 with 10% NaOH. The animals in the aluminum-exposed group were intraperitoneally injected with the Al(mal)3 at a volume of 10 ml/kg, with aluminum exposure for 60 days, and interval time of 2 days for every 5 days; and the control group was given the same volume of normal saline (NS).
# This example was different from Example 1 in that a Morris water maze experiment and a place navigation test were added. […]
# [2] = test system: ApoE4 transgenic mice (KI); assay: new object recognition test; conditions: 4 mmol/L Al(mal)3 i.p. 10 ml/kg, 60 days, testing session T2, 1 h after training, compared among all groups
# Description: as §1
# (§3) An 8 mmol/L aluminum chloride solution and a 24 mmol/L maltol solution were prepared with sterilized triple distilled water, then the two solutions were mixed in a volume ratio of 1:1 to obtain a Al(mal)3 solution with a final concentration of 4 mmol/L, and pH was adjusted to 7.4 with 10% NaOH. […]
# In this example, a new object recognition test was conducted on the basis of the above examples. […] The time periods for a mouse to explore the two areas were both recorded by a recording instrument, and the recording time was set to 10 min, after which the mouse was taken out and put back in the original cage. […] Testing session (T2): 1 h after the training session ended, one of the cubes was replaced with a cone, the mouse was placed in exactly the same way as the training session, and the time periods for the mouse to explore two different objects were recorded as a new object recognition time (New, N) and a familiar object time (Familiar, F). […]
# [3] = determination of aluminum content in the brain (ICP-MS); conditions: each aluminum-exposed group (KI, KO, WT mice), 4 mmol/L Al(mal)3 i.p. 10 ml/kg, 60 days; vs control group
# Description: as §1, §3
# This example was different from the above Example in that the determination of aluminum content in the brain was added. 60 mg of mouse brain tissue was weighed and put into a microwave digestion tube, 3 ml of nitric acid (guaranteed reagent) was added, and the tube was put in a microwave digestion system for microwave digestion according to a program; after digestion, the solution was filtered with a 0.22 μm microporous filter, and a resulting filtrate was collected in a 5 ml deionized centrifuge tube and then diluted to […] with nitric acid (guaranteed reagent); and the sample was diluted 25 times with Wahaha water, and aluminum content was detected with ICP-MS.
# Aβ42 = assay: determination of Aβ42 content in the hippocampus (Elisa kit); conditions: KI mice, 4 mmol/L Al(mal)3 i.p. 10 ml/kg, 60 days
# Description: as §1, §2
# This example was different from the above examples in that the determination of Aβ42 content was added. The hippocampus tissue of a mouse was stripped, and crushed with an ultrasonic processor; the hippocampal tissue protein was extracted with a tissue protein extraction reagent; and the Aβ42 content in the hippocampus was detected with an Aβ42 protein Elisa kit.
# tau-5 = assay: expression level of tau-5 in the hippocampus (Western blot); conditions: KI mice, 4 mmol/L Al(mal)3 i.p. 10 ml/kg, 60 days; relative expression by Western blot
# Description: as §1, §2
# (§4) This example was different from the above examples in that the determination of expression levels of Tau proteins in the brain was added. The tau-5 and pThr181 levels in animals of each group were determined by Western blot. […] The gray value was analyzed with Quantity one software, and the relative expression level of protein was calculated.
# pThr181 = assay: expression level of pThr181 in the hippocampus (Western blot); conditions: KI mice, 4 mmol/L Al(mal)3 i.p. 10 ml/kg, 60 days; relative expression by Western blot
# Description: as §1, §2, §4
compound,measurement,setting,value
"Cc1occc(=O)c1[O][Al]([O]c1c(C)occc1=O)[O]c1c(C)occc1=O [Al, Al(mal)3]",escape latency (time to find the platform),"[1]; 60 days exposure, days 4 and 5 of training, vs control group",significantly longer
same,number of crossing the platform,"[1]; 60 days, space exploration experiment, 60 s, compared among all groups",least number of crossing the platform
same,discrimination index (DI),[2],lowest DI
same,brain aluminum content,[3],significantly higher
same,Aβ42 content in the hippocampus,Aβ42,significantly increased
same,expression level of tau-5 in the hippocampus,tau-5,significantly increased
same,expression level of pThr181 in the hippocampus,pThr181,significantly increased
